# Measurements taken from the kinase profiling compilation of Christmann-Franck et al. (2016).
# How the values were obtained:
# Assay in all cases: radiometric filter-binding kinase assay, Kinase HotSpot
# Conditions in all cases: compound 0.5 µM; ATP 10 µM
# EPHA7 (human) = EPHA7 (human) (UniProt Q15375)
# MAP2K1 (human) = MAP2K1 (human) (UniProt Q02750)
# BRSK1 (human) = BRSK1 (human) (UniProt Q8TDC3)
# PRKACG (human) = PRKACG (human) (UniProt P22612)
# SRPK2 (human) = SRPK2 (human) (UniProt P78362)
# STK33 (human) = STK33 (human) (UniProt Q9BYT3)
# MYO3B (human) = MYO3B (human) (UniProt Q8WXR4)
# INSRR (human) = INSRR (human) (UniProt P14616)
# DYRK3 (human) = DYRK3 (human) (UniProt O43781)
# CHEK2 (human) = CHEK2 (human) (UniProt O96017)
# MAP4K2 (human) = MAP4K2 (human) (UniProt Q12851)
# DDR2 (human) = DDR2 (human) (UniProt Q16832)
# NEK2 (human) = NEK2 (human) (UniProt P51955)
# GRK7 (human) = GRK7 (human) (UniProt Q8WTQ7)
# CDK1 CCNB1 (human) = CDK1 CCNB1 (human) (UniProt P06493+P14635)
# MAP3K5 (human) = MAP3K5 (human) (UniProt Q99683)
# EPHA1 (human) = EPHA1 (human) (UniProt P21709)
# TEK (human) = TEK (human) (UniProt Q02763)
# STK39 (human) = STK39 (human) (UniProt Q9UEW8)
# AXL (human) = AXL (human) (UniProt P30530)
# PRKCB2 (human) = PRKCB2 (human) (UniProt P05771)
# CAMKK1 (human) = CAMKK1 (human) (UniProt Q8N5S9)
# DAPK3 (human) = DAPK3 (human) (UniProt O43293)
# PRKCZ (human) = PRKCZ (human) (UniProt Q05513)
# PRKX (human) = PRKX (human) (UniProt P51817)
# CSNK1G2 (human) = CSNK1G2 (human) (UniProt P78368)
# GRK5 (human) = GRK5 (human) (UniProt P34947)
# PHKG1 (human) = PHKG1 (human) (UniProt Q16816)
# PRKCD (human) = PRKCD (human) (UniProt Q05655)
# LTK (human) = LTK (human) (UniProt P29376)
# SRPK3 (human) = SRPK3 (human) (UniProt Q9UPE1)
# VRK1 (human) = VRK1 (human) (UniProt Q99986)
# MARK2 (human) = MARK2 (human) (UniProt Q7KZI7)
# BMX (human) = BMX (human) (UniProt P51813)
# ADRBK1 (human) = ADRBK1 (human) (UniProt P25098)
# FRK (human) = FRK (human) (UniProt P42685)
# DYRK2 (human) = DYRK2 (human) (UniProt Q92630)
# DYRK4 (human) = DYRK4 (human) (UniProt Q9NR20)
# BTK (human) = BTK (human) (UniProt Q06187)
# TXK (human) = TXK (human) (UniProt P42681)
# MAP3K14 (human) = MAP3K14 (human) (UniProt Q99558)
# EPHA1 (human), sequence (P21709 whole entry, looked up): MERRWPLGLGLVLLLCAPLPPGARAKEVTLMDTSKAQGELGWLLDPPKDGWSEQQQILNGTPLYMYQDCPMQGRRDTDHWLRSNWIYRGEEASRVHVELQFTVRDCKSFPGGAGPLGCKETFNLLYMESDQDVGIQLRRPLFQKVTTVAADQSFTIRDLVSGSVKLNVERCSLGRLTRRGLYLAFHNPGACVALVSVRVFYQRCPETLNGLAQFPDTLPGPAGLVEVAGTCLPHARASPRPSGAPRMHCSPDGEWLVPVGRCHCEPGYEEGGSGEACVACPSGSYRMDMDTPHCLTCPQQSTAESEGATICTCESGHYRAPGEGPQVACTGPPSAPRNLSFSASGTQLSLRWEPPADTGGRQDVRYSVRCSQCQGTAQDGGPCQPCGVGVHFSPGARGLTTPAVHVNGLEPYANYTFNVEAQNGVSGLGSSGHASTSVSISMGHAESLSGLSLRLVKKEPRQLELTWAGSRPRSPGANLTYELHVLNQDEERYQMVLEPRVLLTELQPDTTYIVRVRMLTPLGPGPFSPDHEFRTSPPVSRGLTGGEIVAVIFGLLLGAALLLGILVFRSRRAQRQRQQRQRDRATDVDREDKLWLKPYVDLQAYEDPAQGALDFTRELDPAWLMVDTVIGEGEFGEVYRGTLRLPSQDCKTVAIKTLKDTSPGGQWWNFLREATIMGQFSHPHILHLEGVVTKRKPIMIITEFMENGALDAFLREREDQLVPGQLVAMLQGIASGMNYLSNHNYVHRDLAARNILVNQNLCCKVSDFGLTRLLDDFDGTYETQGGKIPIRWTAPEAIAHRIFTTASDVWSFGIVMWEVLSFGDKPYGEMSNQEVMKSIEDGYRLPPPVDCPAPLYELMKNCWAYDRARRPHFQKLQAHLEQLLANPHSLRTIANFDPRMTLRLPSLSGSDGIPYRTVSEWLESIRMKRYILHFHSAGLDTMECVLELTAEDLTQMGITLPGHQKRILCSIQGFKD
# NEK2 (human), sequence (P51955 whole entry, looked up): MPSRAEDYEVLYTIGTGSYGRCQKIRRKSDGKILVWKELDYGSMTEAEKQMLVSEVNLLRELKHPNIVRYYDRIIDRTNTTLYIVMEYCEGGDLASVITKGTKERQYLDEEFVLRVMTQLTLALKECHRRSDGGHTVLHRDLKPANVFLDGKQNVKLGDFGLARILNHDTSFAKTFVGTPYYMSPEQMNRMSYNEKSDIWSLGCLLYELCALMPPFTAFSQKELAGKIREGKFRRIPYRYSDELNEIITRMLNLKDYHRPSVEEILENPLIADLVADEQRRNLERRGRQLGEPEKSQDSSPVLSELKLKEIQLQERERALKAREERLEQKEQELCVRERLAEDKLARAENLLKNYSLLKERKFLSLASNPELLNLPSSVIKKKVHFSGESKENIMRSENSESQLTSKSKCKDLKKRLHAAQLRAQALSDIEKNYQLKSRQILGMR
# MAP3K5 (human), sequence (Q99683 whole entry, looked up): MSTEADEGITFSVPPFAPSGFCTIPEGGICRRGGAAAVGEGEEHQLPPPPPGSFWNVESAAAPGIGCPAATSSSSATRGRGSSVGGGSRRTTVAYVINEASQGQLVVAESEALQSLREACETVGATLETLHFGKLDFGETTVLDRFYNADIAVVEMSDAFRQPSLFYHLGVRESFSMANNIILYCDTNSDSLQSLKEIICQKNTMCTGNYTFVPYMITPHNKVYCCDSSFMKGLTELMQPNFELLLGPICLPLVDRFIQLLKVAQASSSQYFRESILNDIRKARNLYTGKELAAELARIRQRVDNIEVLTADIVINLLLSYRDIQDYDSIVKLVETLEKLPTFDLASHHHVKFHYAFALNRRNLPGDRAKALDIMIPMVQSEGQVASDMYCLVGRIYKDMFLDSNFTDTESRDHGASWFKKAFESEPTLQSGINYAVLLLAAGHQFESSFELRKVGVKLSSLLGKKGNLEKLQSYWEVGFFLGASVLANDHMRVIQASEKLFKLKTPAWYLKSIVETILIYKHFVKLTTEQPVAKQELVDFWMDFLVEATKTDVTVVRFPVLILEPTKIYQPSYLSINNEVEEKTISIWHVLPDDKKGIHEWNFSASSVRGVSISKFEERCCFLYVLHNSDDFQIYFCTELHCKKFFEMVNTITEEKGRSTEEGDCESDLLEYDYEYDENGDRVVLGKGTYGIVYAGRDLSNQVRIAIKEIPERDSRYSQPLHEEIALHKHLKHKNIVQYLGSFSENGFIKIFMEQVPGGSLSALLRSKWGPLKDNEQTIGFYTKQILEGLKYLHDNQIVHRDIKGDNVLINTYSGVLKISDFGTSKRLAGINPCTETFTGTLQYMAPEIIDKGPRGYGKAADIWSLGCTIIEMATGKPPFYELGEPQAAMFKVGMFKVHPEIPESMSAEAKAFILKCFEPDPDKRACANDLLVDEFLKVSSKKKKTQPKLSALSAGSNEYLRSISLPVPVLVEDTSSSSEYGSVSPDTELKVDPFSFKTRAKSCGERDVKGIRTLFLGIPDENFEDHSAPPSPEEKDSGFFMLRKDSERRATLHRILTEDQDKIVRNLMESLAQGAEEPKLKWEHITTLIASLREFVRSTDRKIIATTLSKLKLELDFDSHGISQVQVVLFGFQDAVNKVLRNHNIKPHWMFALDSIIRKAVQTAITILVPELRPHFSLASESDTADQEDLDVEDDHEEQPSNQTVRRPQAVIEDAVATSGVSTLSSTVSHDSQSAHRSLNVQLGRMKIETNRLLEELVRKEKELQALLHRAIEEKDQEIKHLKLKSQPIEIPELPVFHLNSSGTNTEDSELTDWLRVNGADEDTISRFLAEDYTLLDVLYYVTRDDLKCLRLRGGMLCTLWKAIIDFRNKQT
# STK33 (human), sequence (Q9BYT3 whole entry, looked up): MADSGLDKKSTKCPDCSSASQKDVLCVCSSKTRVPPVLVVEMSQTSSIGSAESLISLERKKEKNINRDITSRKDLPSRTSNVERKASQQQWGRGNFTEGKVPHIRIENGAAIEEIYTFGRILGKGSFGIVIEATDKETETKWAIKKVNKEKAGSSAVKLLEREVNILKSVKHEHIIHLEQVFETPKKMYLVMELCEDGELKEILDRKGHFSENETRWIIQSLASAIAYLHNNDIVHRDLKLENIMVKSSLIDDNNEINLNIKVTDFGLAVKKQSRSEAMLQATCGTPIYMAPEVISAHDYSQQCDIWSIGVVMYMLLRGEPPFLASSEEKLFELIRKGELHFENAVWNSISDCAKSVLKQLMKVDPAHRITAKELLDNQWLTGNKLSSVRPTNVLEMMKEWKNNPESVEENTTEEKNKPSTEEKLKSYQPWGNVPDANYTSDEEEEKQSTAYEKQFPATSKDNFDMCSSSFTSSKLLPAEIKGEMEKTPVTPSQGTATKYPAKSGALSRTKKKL
# CHEK2 (human), sequence (O96017 whole entry, looked up): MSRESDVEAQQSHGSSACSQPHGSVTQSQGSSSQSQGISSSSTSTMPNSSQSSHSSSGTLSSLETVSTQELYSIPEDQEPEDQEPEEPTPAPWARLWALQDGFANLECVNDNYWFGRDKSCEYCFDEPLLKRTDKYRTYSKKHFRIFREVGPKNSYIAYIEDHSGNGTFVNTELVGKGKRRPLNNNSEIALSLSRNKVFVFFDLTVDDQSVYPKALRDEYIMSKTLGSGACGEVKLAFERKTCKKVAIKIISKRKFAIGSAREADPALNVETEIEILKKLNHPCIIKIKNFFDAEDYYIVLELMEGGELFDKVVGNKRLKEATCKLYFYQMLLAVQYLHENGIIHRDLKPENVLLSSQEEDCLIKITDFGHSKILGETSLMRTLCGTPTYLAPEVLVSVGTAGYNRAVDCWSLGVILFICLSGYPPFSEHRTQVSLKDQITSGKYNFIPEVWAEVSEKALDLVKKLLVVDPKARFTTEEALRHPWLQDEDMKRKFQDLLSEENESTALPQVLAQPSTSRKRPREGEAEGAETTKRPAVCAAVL
# SRPK3 (human), sequence (Q9UPE1 whole entry, looked up): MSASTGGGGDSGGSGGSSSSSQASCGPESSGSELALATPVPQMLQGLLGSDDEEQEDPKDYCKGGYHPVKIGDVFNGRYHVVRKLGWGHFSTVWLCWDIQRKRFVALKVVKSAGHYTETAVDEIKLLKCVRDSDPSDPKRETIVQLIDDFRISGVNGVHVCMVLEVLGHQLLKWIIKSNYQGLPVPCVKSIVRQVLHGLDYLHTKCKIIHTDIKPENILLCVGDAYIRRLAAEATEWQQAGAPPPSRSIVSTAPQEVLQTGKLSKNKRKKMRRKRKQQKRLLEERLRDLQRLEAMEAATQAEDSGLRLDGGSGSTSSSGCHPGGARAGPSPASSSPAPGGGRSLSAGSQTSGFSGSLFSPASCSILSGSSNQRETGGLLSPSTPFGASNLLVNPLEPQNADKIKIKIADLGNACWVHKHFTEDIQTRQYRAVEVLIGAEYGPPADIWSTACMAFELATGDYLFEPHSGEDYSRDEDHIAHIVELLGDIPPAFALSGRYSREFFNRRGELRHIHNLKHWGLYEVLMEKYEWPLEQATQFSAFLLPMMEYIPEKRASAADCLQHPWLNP
# CAMKK1 (human), sequence (Q8N5S9 whole entry, looked up): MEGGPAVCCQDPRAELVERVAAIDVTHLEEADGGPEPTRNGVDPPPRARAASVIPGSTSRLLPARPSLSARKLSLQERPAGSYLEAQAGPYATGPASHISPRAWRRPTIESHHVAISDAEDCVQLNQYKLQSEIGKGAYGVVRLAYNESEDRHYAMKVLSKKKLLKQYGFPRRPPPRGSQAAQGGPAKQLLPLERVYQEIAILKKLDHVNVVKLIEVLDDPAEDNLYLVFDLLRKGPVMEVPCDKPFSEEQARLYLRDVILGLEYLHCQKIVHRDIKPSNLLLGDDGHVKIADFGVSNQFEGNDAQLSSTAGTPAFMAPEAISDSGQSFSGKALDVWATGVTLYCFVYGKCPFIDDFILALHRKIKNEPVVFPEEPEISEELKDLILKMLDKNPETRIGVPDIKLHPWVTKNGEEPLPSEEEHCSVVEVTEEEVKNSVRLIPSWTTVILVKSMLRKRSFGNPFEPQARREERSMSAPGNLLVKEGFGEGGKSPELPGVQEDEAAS
compound,measurement,setting,value
N#CC(C#N)=C(N)/C(C#N)=C/c1ccc(O)cc1,residual activity,EPHA7 (human),90.5%
same,residual activity,MAP2K1 (human),93.7%
same,residual activity,BRSK1 (human),99.2%
same,residual activity,PRKACG (human),96.8%
same,residual activity,SRPK2 (human),88.8%
same,residual activity,STK33 (human),93.2%
same,residual activity,MYO3B (human),88.1%
same,residual activity,INSRR (human),99.9%
same,residual activity,DYRK3 (human),97.7%
same,residual activity,CHEK2 (human),95.5%
same,residual activity,MAP4K2 (human),100%
same,residual activity,DDR2 (human),97.6%
same,residual activity,NEK2 (human),102%
same,residual activity,GRK7 (human),104%
same,residual activity,CDK1 CCNB1 (human),111%
same,residual activity,MAP3K5 (human),103%
same,residual activity,EPHA1 (human),103%
same,residual activity,TEK (human),104%
same,residual activity,STK39 (human),90.3%
same,residual activity,AXL (human),93.7%
same,residual activity,PRKCB2 (human),111%
same,residual activity,CAMKK1 (human),104%
same,residual activity,DAPK3 (human),91.1%
same,residual activity,PRKCZ (human),105%
same,residual activity,PRKX (human),93.7%
same,residual activity,CSNK1G2 (human),104%
same,residual activity,GRK5 (human),113%
same,residual activity,PHKG1 (human),92.5%
same,residual activity,PRKCD (human),93.7%
same,residual activity,LTK (human),92.5%
same,residual activity,SRPK3 (human),96.4%
same,residual activity,VRK1 (human),103%
same,residual activity,MARK2 (human),91.3%
same,residual activity,BMX (human),80%
same,residual activity,ADRBK1 (human),104%
same,residual activity,FRK (human),99%
same,residual activity,DYRK2 (human),117%
same,residual activity,DYRK4 (human),107%
same,residual activity,BTK (human),99.7%
same,residual activity,TXK (human),100%
same,residual activity,MAP3K14 (human),108%
CNC(=O)c1cc(Oc2ccc(NC(=O)Nc3ccc(Cl)c(C(F)(F)F)c3)cc2)ccn1,residual activity,EPHA7 (human),80.7%
same,residual activity,MAP2K1 (human),102%
same,residual activity,BRSK1 (human),95.8%
same,residual activity,PRKACG (human),100%
same,residual activity,SRPK2 (human),102%
same,residual activity,STK33 (human),83.9%
same,residual activity,MYO3B (human),85.6%
same,residual activity,INSRR (human),104%
same,residual activity,DYRK3 (human),92.7%
same,residual activity,CHEK2 (human),102%
same,residual activity,MAP4K2 (human),108%
same,residual activity,DDR2 (human),3.41%
same,residual activity,NEK2 (human),99.3%
same,residual activity,GRK7 (human),97.3%
same,residual activity,CDK1 CCNB1 (human),98.5%
same,residual activity,MAP3K5 (human),103%
same,residual activity,EPHA1 (human),87.7%
same,residual activity,TEK (human),104%
same,residual activity,STK39 (human),95.7%
same,residual activity,AXL (human),105%
same,residual activity,PRKCB2 (human),97.5%
same,residual activity,CAMKK1 (human),103%
same,residual activity,DAPK3 (human),92.9%
same,residual activity,PRKCZ (human),94.5%
same,residual activity,PRKX (human),97.7%
same,residual activity,CSNK1G2 (human),88.9%
same,residual activity,GRK5 (human),97.8%
same,residual activity,PHKG1 (human),94.3%
same,residual activity,PRKCD (human),104%
same,residual activity,LTK (human),99.9%
same,residual activity,SRPK3 (human),88.4%
same,residual activity,VRK1 (human),99.3%
same,residual activity,MARK2 (human),94.9%
same,residual activity,BMX (human),93.3%
same,residual activity,ADRBK1 (human),112%
same,residual activity,DYRK2 (human),98.9%
same,residual activity,DYRK4 (human),105%
same,residual activity,BTK (human),102%
same,residual activity,TXK (human),106%
same,residual activity,MAP3K14 (human),96.4%
CCN(CC)CCNC(=O)c1c(C)[nH]c(/C=C2\C(=O)Nc3ccc(F)cc32)c1C,residual activity,EPHA7 (human),50.8%
same,residual activity,MAP2K1 (human),67.8%
same,residual activity,BRSK1 (human),45.1%
same,residual activity,PRKACG (human),109%
same,residual activity,SRPK2 (human),95%
same,residual activity,STK33 (human),31.8%
same,residual activity,MYO3B (human),54.5%
same,residual activity,INSRR (human),21.7%
same,residual activity,DYRK3 (human),58.2%
same,residual activity,CHEK2 (human),7.13%
same,residual activity,MAP4K2 (human),34.4%
same,residual activity,DDR2 (human),154%
same,residual activity,NEK2 (human),106%
same,residual activity,GRK7 (human),71.3%
same,residual activity,CDK1 CCNB1 (human),103%
same,residual activity,MAP3K5 (human),100%
same,residual activity,EPHA1 (human),95.1%
same,residual activity,TEK (human),88.6%
same,residual activity,STK39 (human),87.4%
same,residual activity,AXL (human),27.4%
same,residual activity,PRKCB2 (human),104%
same,residual activity,CAMKK1 (human),52.1%
same,residual activity,DAPK3 (human),74.2%
same,residual activity,PRKCZ (human),91.7%
same,residual activity,PRKX (human),105%
same,residual activity,PHKG1 (human),5.12%
same,residual activity,PRKCD (human),95.1%
same,residual activity,LTK (human),34.4%
same,residual activity,SRPK3 (human),102%
same,residual activity,VRK1 (human),97.3%
same,residual activity,BMX (human),99%
same,residual activity,ADRBK1 (human),94.7%
same,residual activity,FRK (human),84.4%
same,residual activity,DYRK2 (human),82.6%
same,residual activity,DYRK4 (human),104%
same,residual activity,BTK (human),50.2%
same,residual activity,TXK (human),92.6%
same,residual activity,MAP3K14 (human),127%
